Experiments:
Assay in all cases: Kinase Profiler 10 μM panel
[1] = target: ALK6(h) (Homo sapiens (Human), UniProt O00238)
Description: (§1) In vitro kinase assays were conducted using Kinase Profiler services provided by Eurofins. The experimental method was as follows: the small molecule compound to be tested (0.001-10 μM), the protein kinase to be tested were incubated with a buffer containing substrate, 10 mM magnesium acetate, and [γ-^33P-ATP], the reaction was started by adding Mg\TPmix, after incubation for a period of time at room temperature, a 3% phosphate solution was added to the buffer to stop the reaction. Subsequently, 10 μL of the reaction mixture was quantitatively pipetted onto P30 filter paper, which was washed three times with 75 mM phosphate solution and then once with methanol. The P30 filter paper was air-dried and scintillation fluid was added for scintillation counting.

[2] = target: GSK3β(h) (Homo sapiens (Human), UniProt P49841)
Description: as §1

[3] = target: Haspin(h) (Homo sapiens (Human), UniProt Q8TF76)
Description: as §1

[4] = target: ATM(h) (Homo sapiens (Human), UniProt Q13315)
Description: as §1

[5] = target: PKCϵ(h) (Homo sapiens (Human), UniProt Q02156)
Description: as §1

[6] = target: IR(h), activated (Homo sapiens (Human), UniProt P06213)
Description: as §1

[7] = target: IRAK4(h) (Homo sapiens (Human), UniProt Q9NWZ3)
Description: as §1

[8] = target: JAK3(h) (Homo sapiens (Human), UniProt P52333)
Description: as §1

[9] = target: CaMKIδ(h) (Homo sapiens (Human), UniProt Q8IU85)
Description: as §1

[10] = target: KDR(h) (Homo sapiens (Human), UniProt P35968)
Chain of KDR(h) (P35968 20-1356): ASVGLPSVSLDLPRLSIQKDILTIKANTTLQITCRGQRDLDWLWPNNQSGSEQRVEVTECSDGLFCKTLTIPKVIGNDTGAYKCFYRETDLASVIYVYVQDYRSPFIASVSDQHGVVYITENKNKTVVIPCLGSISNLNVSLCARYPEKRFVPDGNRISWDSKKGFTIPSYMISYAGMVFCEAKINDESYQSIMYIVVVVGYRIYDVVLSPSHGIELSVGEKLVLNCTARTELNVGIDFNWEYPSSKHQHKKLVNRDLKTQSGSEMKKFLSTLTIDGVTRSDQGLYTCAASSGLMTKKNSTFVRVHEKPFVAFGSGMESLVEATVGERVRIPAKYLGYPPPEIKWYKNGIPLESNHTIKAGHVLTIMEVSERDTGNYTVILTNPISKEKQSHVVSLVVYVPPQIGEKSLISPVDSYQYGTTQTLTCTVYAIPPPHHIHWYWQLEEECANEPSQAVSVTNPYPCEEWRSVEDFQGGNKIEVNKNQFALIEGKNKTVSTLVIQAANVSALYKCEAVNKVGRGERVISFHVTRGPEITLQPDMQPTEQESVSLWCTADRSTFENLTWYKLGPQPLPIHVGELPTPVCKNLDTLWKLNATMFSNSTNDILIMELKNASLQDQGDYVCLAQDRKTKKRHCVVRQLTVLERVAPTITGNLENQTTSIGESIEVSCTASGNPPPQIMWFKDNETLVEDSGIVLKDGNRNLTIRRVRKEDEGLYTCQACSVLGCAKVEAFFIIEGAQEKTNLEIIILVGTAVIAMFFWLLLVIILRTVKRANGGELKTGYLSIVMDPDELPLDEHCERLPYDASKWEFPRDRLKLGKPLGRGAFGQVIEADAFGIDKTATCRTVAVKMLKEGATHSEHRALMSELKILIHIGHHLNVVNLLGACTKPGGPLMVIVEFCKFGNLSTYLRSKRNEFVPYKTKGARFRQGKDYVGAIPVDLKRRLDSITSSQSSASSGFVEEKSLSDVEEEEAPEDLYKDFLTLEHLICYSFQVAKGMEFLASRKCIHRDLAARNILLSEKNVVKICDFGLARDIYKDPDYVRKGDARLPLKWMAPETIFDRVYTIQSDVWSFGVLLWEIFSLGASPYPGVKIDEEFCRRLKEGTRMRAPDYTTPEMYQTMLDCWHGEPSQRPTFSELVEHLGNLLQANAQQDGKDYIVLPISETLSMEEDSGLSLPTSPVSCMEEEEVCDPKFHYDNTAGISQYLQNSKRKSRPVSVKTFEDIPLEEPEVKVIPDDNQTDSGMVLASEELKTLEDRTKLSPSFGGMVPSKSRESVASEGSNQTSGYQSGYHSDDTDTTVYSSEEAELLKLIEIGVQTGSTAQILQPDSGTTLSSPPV
Description: as §1

[11] = target: CaMKK2(h) (Homo sapiens (Human), UniProt Q96RR4)
Chain of CaMKK2(h) (Q96RR4 whole entry): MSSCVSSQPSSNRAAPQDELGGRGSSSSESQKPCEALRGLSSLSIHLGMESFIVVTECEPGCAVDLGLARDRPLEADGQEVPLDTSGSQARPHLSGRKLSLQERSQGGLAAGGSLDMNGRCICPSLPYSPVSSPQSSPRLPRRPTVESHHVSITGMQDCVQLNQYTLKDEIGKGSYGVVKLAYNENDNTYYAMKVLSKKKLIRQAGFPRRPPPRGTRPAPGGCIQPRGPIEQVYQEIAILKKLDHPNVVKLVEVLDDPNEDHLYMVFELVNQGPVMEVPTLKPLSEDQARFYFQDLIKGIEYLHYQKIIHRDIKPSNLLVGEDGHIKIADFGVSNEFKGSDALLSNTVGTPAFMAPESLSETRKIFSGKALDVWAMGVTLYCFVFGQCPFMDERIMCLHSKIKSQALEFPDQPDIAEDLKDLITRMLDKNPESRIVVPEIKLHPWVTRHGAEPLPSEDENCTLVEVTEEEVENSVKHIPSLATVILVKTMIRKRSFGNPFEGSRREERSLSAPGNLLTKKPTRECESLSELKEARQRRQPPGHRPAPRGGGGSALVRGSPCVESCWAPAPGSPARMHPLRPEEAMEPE
Description: as §1

[12] = target: ROCK-I(h) (Homo sapiens (Human), UniProt Q13464)
Description: as §1

[13] = target: Rse(h) (Homo sapiens (Human), UniProt Q06418)
Description: as §1

[14] = target: CHK1(h) (Homo sapiens (Human), UniProt O14757)
Description: as §1

[15] = target: Met(D1246N)(h) (Homo sapiens (Human), UniProt P08581, D1228N)
Description: as §1

[16] = target: Met(Y1248C)(h) (Homo sapiens (Human), UniProt P08581, Y1230C)
Description: as §1

[17] = target: CK2α2(h) (Homo sapiens (Human), UniProt P19784)
Description: as §1

[18] = target: CLK1(h) (Homo sapiens (Human), UniProt P49759)
Chain of CLK1(h) (P49759 whole entry): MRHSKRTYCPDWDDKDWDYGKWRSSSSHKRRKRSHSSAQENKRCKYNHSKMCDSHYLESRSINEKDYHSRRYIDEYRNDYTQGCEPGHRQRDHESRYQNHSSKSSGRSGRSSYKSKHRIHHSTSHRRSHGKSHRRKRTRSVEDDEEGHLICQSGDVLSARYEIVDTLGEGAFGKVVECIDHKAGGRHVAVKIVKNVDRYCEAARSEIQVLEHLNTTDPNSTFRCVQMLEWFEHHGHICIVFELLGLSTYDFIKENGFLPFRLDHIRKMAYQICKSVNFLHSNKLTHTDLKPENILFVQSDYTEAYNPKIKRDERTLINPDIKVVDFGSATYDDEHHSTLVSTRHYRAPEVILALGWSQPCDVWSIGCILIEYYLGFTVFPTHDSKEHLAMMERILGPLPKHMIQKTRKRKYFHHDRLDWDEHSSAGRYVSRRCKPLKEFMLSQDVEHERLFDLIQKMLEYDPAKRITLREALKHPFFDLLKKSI
Description: as §1

[19] = target: MOK(h) (Homo sapiens (Human), UniProt Q9UQ07)
Description: as §1

[20] = target: STK33(h) (Homo sapiens (Human), UniProt Q9BYT3)
Description: as §1

[21] = target: TAK1(h) (Homo sapiens (Human), UniProt O43318)
Description: as §1

[22] = target: MST1(h) (Homo sapiens (Human), UniProt Q13043)
Description: as §1

[23] = target: DDR1(h) (Homo sapiens (Human), UniProt Q08345)
Description: as §1

[24] = target: DYRK2(h) (Homo sapiens (Human), UniProt Q92630)
Chain of DYRK2(h) (Q92630 whole entry): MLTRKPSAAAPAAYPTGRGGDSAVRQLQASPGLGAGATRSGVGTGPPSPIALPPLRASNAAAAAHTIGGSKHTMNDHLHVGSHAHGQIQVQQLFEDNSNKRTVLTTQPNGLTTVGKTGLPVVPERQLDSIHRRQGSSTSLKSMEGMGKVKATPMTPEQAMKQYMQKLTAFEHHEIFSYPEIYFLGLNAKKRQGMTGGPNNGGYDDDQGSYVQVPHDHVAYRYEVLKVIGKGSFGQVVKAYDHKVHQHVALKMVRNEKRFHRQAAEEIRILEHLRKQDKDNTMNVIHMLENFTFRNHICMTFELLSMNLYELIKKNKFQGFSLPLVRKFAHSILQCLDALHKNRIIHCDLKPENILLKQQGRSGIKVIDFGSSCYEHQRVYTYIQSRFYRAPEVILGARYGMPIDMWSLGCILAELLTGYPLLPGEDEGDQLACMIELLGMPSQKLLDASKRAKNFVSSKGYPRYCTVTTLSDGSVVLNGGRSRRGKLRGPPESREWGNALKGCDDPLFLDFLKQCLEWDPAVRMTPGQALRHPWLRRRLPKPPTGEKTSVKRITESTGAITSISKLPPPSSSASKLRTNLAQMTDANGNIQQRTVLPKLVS
Description: as §1

[25] = target: TrkC(h) (Homo sapiens (Human), UniProt Q16288)
Description: as §1

[26] = target: EGFR(L861Q)(h) (Homo sapiens (Human), UniProt P00533, L861Q)
Description: as §1

[27] = target: NUAK2(h) (Homo sapiens (Human), UniProt Q9H093)
Description: as §1

[28] = target: EphA3(h) (Homo sapiens (Human), UniProt P29320)
Chain of EphA3(h) (P29320 21-983): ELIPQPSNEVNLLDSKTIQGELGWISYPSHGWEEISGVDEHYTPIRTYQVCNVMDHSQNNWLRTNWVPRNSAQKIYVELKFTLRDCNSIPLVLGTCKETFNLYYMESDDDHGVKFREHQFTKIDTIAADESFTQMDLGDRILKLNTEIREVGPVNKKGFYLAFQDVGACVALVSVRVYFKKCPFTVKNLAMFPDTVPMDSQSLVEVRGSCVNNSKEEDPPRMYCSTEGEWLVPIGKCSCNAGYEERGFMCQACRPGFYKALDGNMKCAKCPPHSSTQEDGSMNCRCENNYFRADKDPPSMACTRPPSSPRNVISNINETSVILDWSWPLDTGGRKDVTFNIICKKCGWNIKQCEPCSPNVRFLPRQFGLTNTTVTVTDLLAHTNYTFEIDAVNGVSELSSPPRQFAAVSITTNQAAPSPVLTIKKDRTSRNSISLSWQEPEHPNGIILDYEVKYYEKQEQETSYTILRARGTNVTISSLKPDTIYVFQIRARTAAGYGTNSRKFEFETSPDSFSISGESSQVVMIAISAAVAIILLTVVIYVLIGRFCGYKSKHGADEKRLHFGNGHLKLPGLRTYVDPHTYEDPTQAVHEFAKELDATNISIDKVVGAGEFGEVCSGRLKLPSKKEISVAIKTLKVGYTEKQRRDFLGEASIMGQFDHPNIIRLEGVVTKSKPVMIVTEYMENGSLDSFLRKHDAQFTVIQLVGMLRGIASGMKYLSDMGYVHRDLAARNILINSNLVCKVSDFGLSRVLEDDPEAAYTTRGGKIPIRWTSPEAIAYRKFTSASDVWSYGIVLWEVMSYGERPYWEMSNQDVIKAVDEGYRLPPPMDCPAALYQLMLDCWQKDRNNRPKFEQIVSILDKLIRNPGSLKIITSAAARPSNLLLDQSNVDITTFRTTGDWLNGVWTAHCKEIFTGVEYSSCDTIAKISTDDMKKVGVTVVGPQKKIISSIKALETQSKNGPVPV
Description: as §1

[29] = target: EphA4(h) (Homo sapiens (Human), UniProt P54764)
Description: as §1

[30] = target: PAK5(h) (Homo sapiens (Human), UniProt Q9P286)
Description: as §1

[31] = target: EphB3(h) (Homo sapiens (Human), UniProt P54753)
Description: as §1

[32] = target: Wee1(h) (Homo sapiens (Human), UniProt P30291)
Description: as §1

[33] = target: PDHK2(h) (Homo sapiens (Human), UniProt Q15119)
Description: as §1

[34] = target: PDK1(h) (Homo sapiens (Human), UniProt O15530)
Description: as §1

Chain of IR(h), activated (P06213 1005-1310 limits assumed): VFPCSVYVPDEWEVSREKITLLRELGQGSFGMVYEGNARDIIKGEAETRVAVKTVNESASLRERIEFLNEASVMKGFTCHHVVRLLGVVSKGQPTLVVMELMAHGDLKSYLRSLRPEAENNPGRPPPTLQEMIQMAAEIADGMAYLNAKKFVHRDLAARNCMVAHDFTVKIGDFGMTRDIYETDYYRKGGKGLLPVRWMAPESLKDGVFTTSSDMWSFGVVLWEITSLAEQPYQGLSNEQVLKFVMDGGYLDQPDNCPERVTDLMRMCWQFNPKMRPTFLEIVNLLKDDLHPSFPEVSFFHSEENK
Chain of Haspin(h) (Q8TF76 whole entry): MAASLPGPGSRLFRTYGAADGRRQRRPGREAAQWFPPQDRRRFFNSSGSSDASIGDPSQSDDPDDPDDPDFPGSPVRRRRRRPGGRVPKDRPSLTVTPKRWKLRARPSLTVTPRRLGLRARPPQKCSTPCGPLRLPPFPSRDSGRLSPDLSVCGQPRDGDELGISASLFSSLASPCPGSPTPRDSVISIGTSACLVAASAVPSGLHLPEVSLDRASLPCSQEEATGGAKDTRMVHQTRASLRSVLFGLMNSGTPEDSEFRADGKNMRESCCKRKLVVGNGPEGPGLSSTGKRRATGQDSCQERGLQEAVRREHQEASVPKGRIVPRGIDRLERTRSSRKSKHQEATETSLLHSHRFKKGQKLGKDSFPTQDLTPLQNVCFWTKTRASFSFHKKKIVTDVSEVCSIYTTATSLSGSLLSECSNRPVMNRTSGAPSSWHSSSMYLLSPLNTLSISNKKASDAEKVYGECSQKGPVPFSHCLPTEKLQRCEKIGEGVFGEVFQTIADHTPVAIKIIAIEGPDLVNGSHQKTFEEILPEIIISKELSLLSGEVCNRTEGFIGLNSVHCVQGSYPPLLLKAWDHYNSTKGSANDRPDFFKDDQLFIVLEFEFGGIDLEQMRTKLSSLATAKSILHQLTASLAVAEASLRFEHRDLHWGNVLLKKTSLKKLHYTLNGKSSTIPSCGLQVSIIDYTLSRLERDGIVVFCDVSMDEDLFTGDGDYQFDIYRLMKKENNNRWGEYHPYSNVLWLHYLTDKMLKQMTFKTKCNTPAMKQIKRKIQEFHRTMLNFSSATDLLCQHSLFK

For `C[C@H](NC(=O)c1c[nH]c2ccc(-c3ccc4nc(NC(=O)C5CC5)sc4c3)cc12)c1cccc(F)c1` [Compound 34, (S)-5-(2-(cyclopropanecarboxamido)benzo[d]thiazol-6-yl)-N-(1-(3-fluorophenyl)ethyl)-1H-indole-3-carboxamide], the Inhibition ratio [1] was −4%, the Inhibition ratio [2] was 13% and the Inhibition ratio [3] was 39%. For the same compound, the Inhibition ratio [4] was 3%, the Inhibition ratio [5] was −8% and the Inhibition ratio [6] was 13%. The Inhibition ratio [7] was 15%, the Inhibition ratio [8] was 23% and the Inhibition ratio [9] was 22%. It also gave an Inhibition ratio [10] of 83%, an Inhibition ratio [11] of 34% and an Inhibition ratio [12] of 15%. The Inhibition ratio [13] was 69%, the Inhibition ratio [14] was 2% and the Inhibition ratio [15] was 86%. The Inhibition ratio [16] was 99%, the Inhibition ratio [17] was 23% and the Inhibition ratio [18] was 80%. The Inhibition ratio [19] was −15%, the Inhibition ratio [20] was 4% and the Inhibition ratio [21] was 45%. It also gave an Inhibition ratio [22] of 5%, an Inhibition ratio [23] of 51% and an Inhibition ratio [24] of 5%. The Inhibition ratio [25] was 104%, the Inhibition ratio [26] was 49% and the Inhibition ratio [27] was 9%. For the same compound, the Inhibition ratio [28] was −8%, the Inhibition ratio [29] was 14% and the Inhibition ratio [30] was −2%. It also gave an Inhibition ratio [31] of 3%, an Inhibition ratio [32] of −1% and an Inhibition ratio [33] of 3%. For the same compound, the Inhibition ratio [34] was 19%.
`C[C@H](NC(=O)c1cn(C)c2ccc(-c3ccn4nc(NC(=O)C5CC5)nc4c3)cc12)c1cccc(F)c1` [Compound 94, (S)-5-(2-(cyclopropanecarboxamido)-[1,2,4]triazolo[1,5-a]pyridin-7-yl)-N-(1-(3-fluorophenyl)ethyl)-1-methyl-1H-indole-3-carboxamide] gave an Inhibition ratio/% [1] of −5%, an Inhibition ratio/% [2] of 1% and an Inhibition ratio/% [3] of 48%. The Inhibition ratio/% [4] was −15%, the Inhibition ratio/% [5] was 35% and the Inhibition ratio/% [6] was 35%. For the same compound, the Inhibition ratio/% [7] was −11%, the Inhibition ratio/% [8] was 38% and the Inhibition ratio/% [9] was 26%. The Inhibition ratio/% [10] was −12%, the Inhibition ratio/% [11] was 63% and the Inhibition ratio/% [12] was −10%. For the same compound, the Inhibition ratio/% [13] was 53%, the Inhibition ratio/% [14] was −2% and the Inhibition ratio/% [15] was −11%. The Inhibition ratio/% [16] was 11%, the Inhibition ratio/% [17] was 25% and the Inhibition ratio/% [18] was 80%. It also gave an Inhibition ratio/% [19] of −15%, an Inhibition ratio/% [20] of 23% and an Inhibition ratio/% [21] of 9%. The Inhibition ratio/% [22] was 20%, the Inhibition ratio/% [23] was 21% and the Inhibition ratio/% [24] was 2%. For the same compound, the Inhibition ratio/% [25] was 28%, the Inhibition ratio/% [26] was 75% and the Inhibition ratio/% [27] was 30%. It also gave an Inhibition ratio/% [28] of 6%, an Inhibition ratio/% [29] of 11% and an Inhibition ratio/% [30] of 47%. The Inhibition ratio/% [31] was 26%, the Inhibition ratio/% [32] was 1% and the Inhibition ratio/% [33] was 32%. The Inhibition ratio/% [34] was 18%.

Reference: patent US20230365546A1, “5-SUBSTITUTED INDOLE 3-AMIDE DERIVATIVES, PREPARATION METHOD AND USE THEREOF” (ORIGIANT PHARMACEUTICAL CO., LTD, priority 2020, published 2023)
